Reference: patent publication US9873693B2 (Sunesis Pharmaceuticals, Inc., priority 2006, dated 2018)
Like-named read-outs stand apart in the source and are kept apart here.

Legend:
[1] = molecular target: phosphorylated PDK1 (Homo sapiens (Human), UniProt O15530); assay: PDK1 kinase assay (coupled PDK1/AKT/FAM-crosstide, IMAP); type: biochemical; details: 0.5 nM phosphorylated PDK1, 24 μM ATP; read-out: Inhibition of phospo-PDK1 in vitro IC50
[2] = molecular target: dephosphorylated PDK1 (Homo sapiens (Human), UniProt O15530); assay: as above; type: biochemical; details: 25 nM un-phosphorylated PDK1, 24 μM ATP; read-out: Inhibition of dephospo-PDK1 in vitro IC50
Chain of dephosphorylated PDK1 (O15530 51-360): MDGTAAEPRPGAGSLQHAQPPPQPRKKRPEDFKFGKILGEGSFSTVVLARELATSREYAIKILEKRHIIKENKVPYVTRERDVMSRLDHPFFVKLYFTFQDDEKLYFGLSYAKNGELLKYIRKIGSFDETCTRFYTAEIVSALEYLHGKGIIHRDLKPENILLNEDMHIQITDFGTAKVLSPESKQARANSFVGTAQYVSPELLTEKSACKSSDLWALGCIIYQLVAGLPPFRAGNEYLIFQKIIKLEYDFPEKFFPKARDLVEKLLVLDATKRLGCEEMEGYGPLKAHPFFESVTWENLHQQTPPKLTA
Outline: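 The FAM-crosstide phosphorylation readout was IMAP polarization (ex 485/em 530 nm, 2 h binding), with 4-parameter fits of ΔmP data. The reaction ran 30 min at 25 °C with 24 μM ATP, and contained 25 nM phosphatase-treated PDK1 (aa 51–360) plus 30 nM unphosphorylated AKT2-PIFtide and 100 nM substrate. Buffer was 10 mM Tris pH 7.2, 10 mM MgCl2, 0.01% Triton X-100 and 1 mM DTT.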

[3] = molecular target: full-length PDK1 (Homo sapiens (Human), UniProt O15530); assay: PDK phosphorylation of AKT and PKC-PIFtide in presence of PIP3 vesicles; type: biochemical; details: substrates PKC-PIFtide vs AKT2
Chain of full-length PDK1 (O15530 whole entry): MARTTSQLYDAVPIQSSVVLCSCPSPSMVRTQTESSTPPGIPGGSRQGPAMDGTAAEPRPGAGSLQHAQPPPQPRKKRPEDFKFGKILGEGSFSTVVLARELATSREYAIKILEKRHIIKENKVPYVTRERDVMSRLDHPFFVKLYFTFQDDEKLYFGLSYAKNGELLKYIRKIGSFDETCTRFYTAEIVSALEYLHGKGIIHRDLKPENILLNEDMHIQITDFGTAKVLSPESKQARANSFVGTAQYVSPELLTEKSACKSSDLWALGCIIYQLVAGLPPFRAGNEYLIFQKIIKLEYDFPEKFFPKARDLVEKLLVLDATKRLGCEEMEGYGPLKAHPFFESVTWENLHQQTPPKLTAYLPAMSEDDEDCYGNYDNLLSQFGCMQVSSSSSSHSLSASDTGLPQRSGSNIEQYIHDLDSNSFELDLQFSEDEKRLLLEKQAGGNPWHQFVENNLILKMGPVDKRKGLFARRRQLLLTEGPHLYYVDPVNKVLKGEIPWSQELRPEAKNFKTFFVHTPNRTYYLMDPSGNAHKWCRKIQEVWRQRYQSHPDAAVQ
Method: PDK phosphorylation of two different substrates, AKT and PKC-PIFtide, was measured in presence of pre-formed phophoinositol lipid PIP3 vesicles. 5 nM full-length PDK1 and was incubated with 100 nM substrate (unphosphorylated, full-length AKT2 or PKC-PIFtide, Invitrogen cat#P2925) in presence of test compound or DMSO at room temperature for 3 hours. Final buffer conditions were 10 mM Tris pH 7.5 buffer containing 10 mM MgCl2, 0.002% Triton X-100, 1 mM DTT, 0.2 mg/ml BSA, 10 uM PtdIns(3,4,5)P3 (Matreya, Inc), 100 uM DOPC:DOPS (Avanti Polar Lipids), and 0.5 uCi γ^33P-ATP (3000 Ci/mmol, Perkin-Elmer.)
Kinase reactions were stopped with addition of 50 uM non-labelled ATP and 5 mM EDTA, then acidified with 0.5% final concentration phosphoric acid. Labeled proteins were collected in Whatman P81 filter plates and washed with three 150 ul volumes of 0.5% phosphoric acid.
Lipid vesicles were pre-formed as follows. 15 mg (3 ampules) DOPC:DOPS was resuspended in 898 ul 10 mM HEPES pH 7.4. 1 mg PIP3 was resuspended in 1000 ul 10 mM HEPES pH 7.4. 964 ul of PIP3 was mixed with 800 ul DOPC:DOPS and diluted with 18.2 ml 10 mM HEPES pH 7.4 and mixed by vortexing. The lipid mixture was subjected to 5 cycles of freeze/thaw using liquid nitrogen and a 50° C. water bath. Aliquot of lipids were flash frozen and stored at −20° C.

[4] = test system: phospho-akt (Thr308); assay: phospho-akt (Thr308) MSD ELISA in PC-3 cells; type: cell-based; details: Homo sapiens, PC-3, 2 h, PC-3 cells, 2 hours, no serum
Outline: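 Read-out is MSD electrochemiluminescence after lysate capture overnight at 4 degrees and 1 hr RT detection-antibody step. Before lysis, overnight-plated PC-3 cells received three-fold serial dilutions of inhibitor in serum-free medium, with DMSO-only high controls.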

[5] = test system: Phospho-T308 Akt; assay: Phospho-T308 Akt detection using immunoblot (western blot) in PC-3 cells; type: cell-based
Outline: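 PC-3 prostate cells, cultured overnight in F12K plus 10% FBS, were treated for 2 h at 37 °C in serum-free medium with compound A (1000× DMSO dilutions). Lysate protein was immunoblotted with anti-phospho-Akt Thr308. Bands were quantified by background-subtracted densitometry, giving EC50 by non-linear regression and percent decrease at 2 μM and 5 μM.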

[6] = test system: phospho-akt (thr308), phospho-PKC delta (thr505), phospho-PKC (thr538), phospho-PKC zeta (thr410); assay: Phospho-PKC detection using immunoblot in PC-3 cells; type: cell-based; details: FIG. 2; at 2 hours and 18 hours
Method: The Phospho-PKC Detection was performed using immunoblot analysis as follows. The cell activity of test compounds, were assessed using immunoblot analysis for phospho-akt (thr308), phospho-PKC delta (thr505), phospho-PKC (thr538) and phospho-PKC zeta (thr410).
PC-3 prostate cells were plated in a 100 mm tissue culture dish in F12K media (Invitrogen, Carlsbad, Calif.) plus 10% FBS (Invitrogen) and placed in incubator overnight. The stocks of test compounds were a 50 mM solution in DMSO. For some test compounds a 5 mM solution was made in DMSO then directly diluted (1 μM and 5 μM final concentration) into fresh media with no serum. For other test compounds the 50 mM stock was directly diluted (10 μM and 30 μM final concentrations) into fresh media with no serum. For the control, DMSO was added to media with no serum at a final concentration of 0.1%. Cells were incubated with compound for 2 hrs or 18 hrs at 37° C. Cells were harvested and washed in PBS and subjected to centrifugation at 3,300 rpm for 5 minutes. The cell pellet was lysed in 150 μl Pierce (Rockford, Ill.) M-PER lysis buffer plus protease inhibitors and phosphatase inhibitors (Sigma, St. Louis, Mo.) for 30 minutes on ice followed by centrifugation at 13,000 rpm for 5 minutes. The protein content of the supernatant was assayed using DC Protein Assay (BioRad, Hercules, Calif.). […]

[7] = read-out: Inhibition of P308 Akt in cells using MSD EC50
[8] = read-out: Reduction of Cellular Levels of Akt p308 By MSD ELISA (EC50 μM)

Chain of phosphorylated PDK1 (O15530 51-360): as the sequence (O15530 51-360) above

COc1ccnc(NCCC#CCCNC(=O)c2cccn(Cc3cccc(Cl)c3)c2=O)n1 [Cpd 102]
IC50 [1]: 0.5 to 10 µM | IC50 [2]: < 0.5 µM | Ratio of PIP3 IC50 with PKCtide to PIP3 IC50 with AKT [3]: 19.1

COc1ccnc(NCCC#CCNC(=O)c2cccn(Cc3ccc(F)c(F)c3)c2=O)n1 [Cpd 109]
IC50 [1]: < 0.5 µM | IC50 [2]: < 0.5 µM | Ratio of PIP3 IC50 with PKCtide to PIP3 IC50 with AKT [3]: 51.8

O=C(N[C@@H](COc1ccc2[nH]c(=O)[nH]c2c1)c1ccccc1)c1cccn(Cc2ccc(F)c(F)c2)c1=O [Cpd 144]
EC50 [4, 7]: < 1 µM | EC50 [4, 8]: < 1 µM | Reduction of Cellular Levels of Akt p308 By Western ([5]; 2 hour incubation, concentration not given in Table 2): bbb (inhibition of more than 75%) | inhibition at 2 µM ([5]; Homo sapiens, at 2 μM, read-out: Percent Inhibition of phospho-Akt (308) By Western): > 75% | inhibition of PDK1 mediated phosphorylation of Akt relative to PKC isoforms [6]: selective inhibition of PDK1 mediated phosphorylation of Akt relative to PDK1 mediated phosphorylation of PKC isoforms

O=C(NCc1ccc(-c2c[nH]c3ncccc23)s1)c1cccn(Cc2ccc(F)c(F)c2)c1=O [Cpd 2]
IC50 [1]: < 0.5 µM | EC50 [4, 7]: 1 to 5 µM | EC50 [4, 8]: 1 to 5 µM | IC50 [2]: < 0.5 µM | Ratio of PIP3 IC50 with PKCtide to PIP3 IC50 with AKT [3]: 36.7

O=C(NCCCCc1c[nH]c2ncccc12)c1cccn(Cc2ccc(F)c(F)c2)c1=O [Cpd 110]
IC50 [1]: < 0.5 µM | IC50 [2]: < 0.5 µM | Ratio of PIP3 IC50 with PKCtide to PIP3 IC50 with AKT [3]: 13.5
